Where a name gives a salt, the structure may show the parent alone.
Tested on: anaesthetized rabbits subjected to vagal stimulation
Assay: In vivo PD model, anaesthetized rabbits with vagal stimulation: right atrial effective refractory period (RAERP), QT
Parameters: species or system rabbit
Experimental: Rabbits were anaesthetized using ketalar and domitor (2.5 and 0.07 mg/kg, respectively) as an i.v. bolus followed by a maintenance i.v. infusion (11 and 0.33 mg/kg/h, respectively) and ventilated with room air. Two percutaneous polyethylene catheter (Venflon 0.8 mm, Viggo, Helsingborg, Sweden) for administration of anaesthetics and drug infusions, respectively, were inserted into marginal veins on the right and left ear. A polyethylene catheter (Intramedic PE 160 Clay Adams, Becton Dickinson, Sparks, Md., USA) was inserted into the left carotid artery and advanced to the level of the aortic arch for blood pressure recording (by means of a pressure transducer, Peter von Berg Medizintechnik Gmbh, Kirchseeon/Englharting, Germany) and for blood sampling. For recording of right atrial electrogram and for atrial pacing, a 4F quadripolar electrophysiological recording catheters (Electrophysiology catheter-Deflectable tip, Biosense Webster Inc, Johnson & Johnson, Diamond Bar, Calif., USA) was advanced into the right jugular vein and positioned high up in the right atrium (HRA). Electrodes were advanced via introducers (4F Fast-Cath haemostasis introducer, ST. Jude Medical, DAIG Division, Inc. Minnetonka, Minn., USA) correctly positioned through fluoroscopic guidance. The effective refractory period in the right atrium (RAERP) was determined at a stimulation current strength approximately 20% above the threshold for pacing the atria. A custom-made PC-based (AstraZeneca R&D, Mölndal, Sweden) programmable stimulator and constant current pulse generator (WPI Stimulus Isolator, World Precision Instruments, Sarasota, Fla., USA) were used for stimulation at one or two predefined basic cycle lengths (S1) of for example 200 and 300 ms. A premature extra stimulus (S2) was introduced after every 10th paced basic beat with increments of 2 ms until capture. […] For vagal stimulation, both vagal nerves were ligated and cut in the cervical region and propranolol (0.5 mg/kg) was administrated as an i.v. infusion to decrease sympathetic influence. Electrodes were inserted in the middle of the right vagal nerve to stimulate the efferent vagi. The RAERP was determined without or with vagal stimulation at 50% of maximal vagal response. Subsequent infusion of compound aimed to increase the RAERP with 20 ms during the first dose of two consecutive doses. The drug infusion was followed by a washout period of approximately 30-60 min. QT prolongation was recorded from surface electrocardiography (ECG). The effect on RAERP was measured several times during infusion and washout and blood samples were taken at each measurements. Effect and plasma concentration data was analysed accounting for a concentration-effect-time delay and the unbound plasma concentration (Ceu) increasing the RAERP by 20 ms was calculated.

Row | Structure (SMILES) | Ceu 20 ms [µM]
1 | CCC[C@@H](CN1CCC1)N(C)C(=O)c1ccc(Cl)cc1 [Example 1.2, (S)-N-(1-(Azetidin-1-yl)pentan-2-yl)-4-chloro-N-methylbenzamide] | 0.40
2 | CCC[C@@H](CN1CCC1)N(C)C(=O)c1ccc(F)c(C)c1 [Example 1.4, (S)-N-(1-(Azetidin-1-yl)pentan-2-yl)-4-fluoro-N,3-dimethyl-benzamide] | 0.60
3 | CC(C)[C@@H](CN1CCCC1)N(C)C(=O)c1ccc(F)cc1Cl [Example 1.17, (S)-2-Chloro-4-fluoro-N-methyl-N-(3-methyl-1-(pyrrolidin-1-yl)butan-2-yl)benzamide] | 1.40
4 | Cc1cc(C(=O)N(C)[C@H](CN2CCC2)C2CC2)ccc1F [Example 4.1, (S)—N-(2-(Azetidin-1-yl)-1-cyclopropylethyl)-4-fluoro-N,3-dimethylbenzamide] | 0.74
5 | CN(C(=O)c1ccc(Br)cc1)[C@H](CN1CC(O)C1)C1CC1 [Example 4.4, (S)-4-Bromo-N-(1-cyclopropyl-2-(3-hydroxyazetidin-1-yl)ethyl)-N-methylbenzamide] | 0.75
6 | CC(C)[C@@H](CN1CCC1)N(C)C(=O)c1ccc(Cl)cc1 [Example 5.1, (S)-N-(1-(Azetidin-1-yl)-3-methylbutan-2-yl)-4-chloro-N-methylbenzamide] | 1.00
7 | CC(C)[C@@H](CN1CCC1)N(C)C(=O)c1ccc(Br)cc1.O=C(O)CCC(=O)O [Example 5.2] | 0.60
8 | Cc1cc(C(=O)N(C)[C@H](CN2CC(O)C2)C(C)C)ccc1F [Example 6.1, (S)-4-Fluoro-N-(1-(3-hydroxyazetidin-1-yl)-3-methylbutan-2-yl)-N,3-dimethylbenzamide] | 0.54
9 | CC(C)[C@@H](CN1CC(O)C1)N(C)C(=O)c1ccc(Cl)cc1 [Example 6.2, (S)-4-Chloro-N-(1-(3-hydroxyazetidin-1-yl)-3-methylbutan-2-yl)-N-methylbenzamide] | 0.40
10 | Cc1cc(C(=O)N(C)[C@H](CN2CC(O)C2)C2CC2)ccc1F [Example 7.1, (S)—N-(1-Cyclopropyl-2-(3-hydroxyazetidin-1-yl)ethyl)-4-fluoro-N,3-dimethylbenzamide] | 5.40
11 | CN(C(=O)c1ccc(Cl)cc1)[C@H](CN1CC(O)C1)C1CC1 [Example 7.2, (S)-4-Chloro-N-(1-cyclopropyl-2-(3-hydroxyazetidin-1-yl)ethyl)-N-methylbenzamide] | 1.00
12 | CN(C(=O)c1ccc(F)c(Cl)c1)[C@H](CN1CC(O)C1)C1CC1 [Example 7.3, (S)-3-Chloro-N-(1-cyclopropyl-2-(3-hydroxyazetidin-1-yl)ethyl)-4-fluoro-N-methylbenzamide] | 2.10
13 | CCC[C@@H](CN1CC(O)C1)N(C)C(=O)c1ccc(F)c(F)c1 [Example 8.1, (S)-3,4-Difluoro-N-(1-(3-hydroxyazetidin-1-yl)pentan-2-yl)-N-methylbenzamide] | 0.87
14 | CCC[C@@H](CN1CC(O)C1)N(C)C(=O)c1ccc(Cl)cc1 [Example 8.2, (S)-4-Chloro-N-(1-(3-hydroxyazetidin-1-yl)pentan-2-yl)-N-methyl-benzamide, hydrochloride] | 0.34
15 | CCC[C@@H](CN1CC(O)C1)N(C)C(=O)c1ccc(F)cc1 [Example 8.6, (S)-4-Fluoro-N-(1-(3-hydroxyazetidin-1-yl)pentan-2-yl)-N-methylbenzamide] | 2.50
16 | CC(C)[C@@H](CN1CC[C@H](O)C1)N(C)C(=O)c1ccc(Cl)cc1 [Example 10.2, 4-Chloro-N-((S)-1-((S)-3-hydroxypyrrolidin-1-yl)-3-methylbutan-2-yl)-N-methylbenzamide hemi tartrate] | 1.40

Row | Structure (SMILES) | Ceu 20 ms [µM]
17 | Cc1cc(C(=O)N(C)[C@H](CN2CCCC2)C(C)C)ccc1F [Example 12.1, (S)-4-Fluoro-N,3-dimethyl-N-(3-methyl-1-(pyrrolidin-1-yl)butan-2-yl)benzamide-dihydroxysuccinate] | 0.68
18 | Cc1cccc(C(=O)N(C)[C@H](CN2CCCC2)C(C)C)c1 [Example 12.2, (S)-1-(2-(N,3-Dimethylbenzamido)-3-methylbutyl)pyrrolidinium 2,3-dihydroxysuccinate] | 2.20
19 | CC(C)[C@@H](CN1CCCC1)N(C)C(=O)c1ccc(F)c(Cl)c1 [Example 16.55, (S)-3-Chloro-4-fluoro-N-methyl-N-(3-methyl-1-(pyrrolidin-1-yl)butan-2-yl)benzamide] | 0.60
20 | CC(C)[C@@H](CN1CCCC1)N(C)C(=O)c1ccc(Cl)cc1 [Example 18, (S)-1-(2-(4-Chloro-N-methylbenzamido)-3-methylbutyl)pyrrolidinium chloride] | 0.70
21 | CC(C)[C@@H](CN1CCCC1)N(C)C(=O)c1ccc(Br)cc1 [Example 19, (S)-1-(2-(4-bromo-N-methylbenzamido)-3-methylbutyl)pyrrolidinium 3-carboxy-2,3-dihydroxypropanoate] | 0.34
22 | CC[C@H](C)[C@@H](CN1CC(O)C1)N(C)C(=O)c1ccc(C#N)cc1F [Example 29.7, 4-Cyano-2-fluoro-N-((2S,3S)-1-(3-hydroxyazetidin-1-yl)-3-methylpentan-2-yl)-N-methylbenzamide] | 0.79
23 | CCCC[C@@H](CN1CC(O)C1)N(C)C(=O)c1ccc(C#N)cc1 [Example 33.4, 4-Cyano-N-[(2S)-1-(3-hydroxyazetidin-1-yl)hexan-2-yl]-N-methylbenzamide] | 0.52
24 | CCCC[C@@H](CN1CC(O)C1)N(C)C(=O)c1ccc(F)cc1 [Example 33.7, 4-Fluoro-N-[(2S)-1-(3-hydroxyazetidin-1-yl)hexan-2-yl]-N-methylbenzamide] | 0.80
25 | CC(C)C[C@@H](CN1CC(O)C1)N(C)C(=O)c1ccc(F)c(F)c1 [Example 38.1, 3,4-Difluoro-N-[(2S)-1-(3-hydroxyazetidin-1-yl)-4-methylpentan-2-yl]-N-methylbenzamide] | 0.34
26 | CC(C)C[C@@H](CN1CC(O)C1)N(C)C(=O)c1ccc(Cl)cc1 [Example 38.2, 4-Chloro-N-[(2S)-1-(3-hydroxyazetidin-1-yl)-4-methylpentan-2-yl]-N-methylbenzamide] | 0.38
27 | CC(C)C[C@@H](CN1CC(O)C1)N(C)C(=O)c1ccc(C#N)cc1F [Example 38.6, 4-Cyano-2-fluoro-N-[(2S)-1-(3-hydroxyazetidin-1-yl)-4-methylpentan-2-yl]-N-methylbenzamide] | 0.72
28 | CN(C(=O)c1ccc(C#N)cc1)[C@H](CN1CC(O)C1)C1CCC1 [Example 39.2, (S)-4-Cyano-N-(1-cyclobutyl-2-(3-hydroxyazetidin-1-yl)ethyl)-N-methylbenzamide] | 0.28
29 | CC[C@@H](CN1CC(O)C1)N(C)C(=O)c1ccc(Cl)cc1 [Example 39.12, (S)-4-Chloro-N-(1-(3-hydroxyazetidin-1-yl)butan-2-yl)-N-methylbenzamide] | 2.06
30 | CN(C(=O)c1ccc(Cl)cc1)[C@H](CN1CC(O)C1)C1CCC1 [Example 39.14, (S)-4-Chloro-N-(1-cyclobutyl-2-(3-hydroxyazetidin-1-yl)ethyl)-N-methylbenzamide] | 0.10
31 | Cc1cc(C(=O)N(C)[C@H](CN2CC(O)C2)C2CCC2)ccc1F [Example 39.16, (S)—N-(1-Cyclobutyl-2-(3-hydroxyazetidin-1-yl)ethyl)-4-fluoro-N,3-dimethylbenzamide] | 0.24

Source: patent US8361998B2, “Compounds and their use as IKACh blockers” (AstraZeneca AB, priority 2010, dated 2013)
